# Measurements: patent publication US20230380427A1 (priority 2020, published 2023)
# Like-named read-outs stand apart in the source and are kept apart here. Marks after values point to notes of the source that are not given here.
# Tests used:
# F. graminearum [1] = format: in vivo, Fusarium graminearum; conditions: wheat Capo; versus control
# F. graminearum [2] = format: in vivo, Fusarium graminearum; conditions: wheat Capo, Lennox, Trappe, Kronjet, ear treated, FHB assessed 21 days after anthesis, versus untreated control
# Plasmopara viticola = test: Grapevine leaf disc assay (downy mildew, Peronospora); format: in vivo; conditions: grapevine leaf discs, 5 days at 23° C.; diseased disk area versus control
# Experimental: Exemplary tests for reduction of Peronospora symptoms were carried out on grapevine leaf discs as follows. Ten leaf discs were first inoculated with prototypes for 20 min and then treated with a spore suspension (20000 sporangia/ml) of the fungus until zoospores were released from the sporangia. Afterwards, leaf disks were placed on water agar plates and incubated for 5 days at 23° C. (16 h light/8 h darkness). Consequently, disease severity was calculated by measurement of the percentage of diseased disk area. Control treatments were included by either using water or by application of the copper-based, commercially available plant protection product Cuprozin.
# F. graminearum [3] = format: in vivo, Fusarium graminearum; conditions: wheat Trappe, ear treated, versus untreated half of plot
compound,measurement,setting,value
"O=C([O-])[O-].[Ca+2] [Prototype W24, Calcium carbonate from natural resources]",Reduction of Symptoms (%) Disease incidence %,F. graminearum [1],ns
same,Reduction of Symptoms (%) Disease intensity %,F. graminearum [1],no significant effect and ns
same,Reduction of Symptoms (%) Disease severity %,F. graminearum [1],ns
"[Cl-].[Cl-].[Mg+2] [Prototype W3, Magnesium chloride]",Reduction of Symptoms (Disease incidence %),F. graminearum [2]; listed as W3,ns
same,Reduction of Symptoms (Disease incidence %),F. graminearum [2]; listed as magnesium,no influence
"[Ca+2].[Cl-].[Cl-] [Prototype G1, Calcium chloride]",Reduction of Symptoms (Disease Severity %),Plasmopara viticola,50.9** %
Sodium silicium oxide [Prototype W4],Reduction of Symptoms (Disease incidence %),F. graminearum [2]; listed as Silicium,no influence
same,Reduction of Symptoms (Disease incidence %),F. graminearum [2]; listed as W4,ns
"O=C([O-])[O-].[Ca+2] [Prototype W25, Calcium carbonate from natural resources]",Reduction of Symptoms (Disease incidence %),F. graminearum [3]; listed as Calcium carbonate,13%
same,Reduction of Symptoms (Disease incidence %),F. graminearum [3]; listed as W25,13* %
"[Ca+2].[Cl-].[Cl-] [Prototype W2, Calcium chloride]",Reduction of Symptoms (Disease incidence %),F. graminearum [2],29%
